Measurements as given in ChEMBL document CHEMBL5150005, “Discovery of 5-{4-[(7-Ethyl-6-oxo-5,6-dihydro-1,5-naphthyridin-3-yl)methyl]piperazin-1-yl}-N-methylpyridine-2-carboxamide (AZD5305): A PARP1-DNA Trapper with High Selectivity for PARP1 over PARP2 and Other PARPs” (J Med Chem, 2021).
Converted amounts (≈) assume the structure as drawn. The source made the active and inactive calls. No cut-off for these calls is given here.

What was measured:
DLD-1 = assay: Antiproliferative activity against human DLD-1 deficient in BRCA-2 cells measured after 7 days; assay type: functional, cell-based; conditions: Homo sapiens, DLD-1, 168 h
[1] = Aqueous solubility of the compound at pH 7.4; assay type: physicochemical; conditions: buffer
[2] = Intrinsic clearance in human hepatocytes measured per million of cells; assay type: ADME, cell-based, Hepatocyte; conditions: read-out: CLH
[3] = target: Protein mono-ADP-ribosyltransferase PARP3 (Homo sapiens) (UniProt Q9Y6F1); assay: Binding affinity to PARP3 (unknown origin) assessed as apparent dissociation constant
[4] = target: Protein mono-ADP-ribosyltransferase PARP4 (Homo sapiens) (UniProt Q9UKK3); assay: Binding affinity to PARP4 (unknown origin) assessed as apparent dissociation constant
[5] = target: Protein mono-ADP-ribosyltransferase PARP10 (Homo sapiens, UniProt Q53GL7); assay: Binding affinity to PARP10 (unknown origin) assessed as apparent dissociation constant; conditions: read-out: Kd(app)
[6] = target: Protein mono-ADP-ribosyltransferase PARP16 (Homo sapiens) (UniProt Q8N5Y8); assay: Binding affinity to PARP16 (unknown origin) assessed as apparent dissociation constant
[7] = Plasma clearance in mouse; assay type: ADME, organism-based
[8] = Plasma clearance in rat; assay type: ADME
[9] = Plasma clearance in dog; assay type: ADME, Canis lupus familiaris
[10] = Plasma clearance in monkey; assay type: ADME, Macaca mulatta; conditions: rhesus monkey
[11] = Antitumor activity against patient derived explant HBCx-17 cells xenografted in mouse assessed as tumor regression administered daily at 0.03 mg/kg, po for 25 days relative to control; assay type: functional, Homo sapiens; conditions: time 25 day
[12] = Antitumor activity against patient derived explant HBCx-17 cells xenografted in mouse assessed as tumor regression administered daily at 0.1 mg/kg, po for 25 days relative to control; assay type: functional, Homo sapiens; conditions: time 25 day
[13] = Antitumor activity against patient derived explant HBCx-17 cells xenografted in mouse assessed as tumor regression administered daily at 10 mg/kg, po for 25 days relative to control; assay type: functional, Homo sapiens; conditions: time 25 day
[14] = Antitumor activity against patient derived explant HBCx-17 cells xenografted in mouse assessed as tumor regression administered daily at 1 mg/kg, po for 25 days relative to control; assay type: functional, Homo sapiens; conditions: time 25 day
[15] = Hematotoxicity in CD34+ hematopoietic stem/progenitor cells (unknown origin) assessed as reduction of cell viability treated for 5 days by cell-tire-Glo-2.0 luminescence based assay; assay type: toxicity, CD34-positive hematopoietic stem/progenitor cell; conditions: cd34-positive hematopoietic stem/progenitor cell, 120 h; DDE = dose-dependent effect; dose lower 1e-05 µM, dose upper 100 µM, time 5 day
[16] = Hematotoxicity in CD34+ hematopoietic stem/progenitor cells (unknown origin) assessed as reduction of cell viability treated at 3 nM for 5 days by cell-tire-Glo-2.0 luminescence based assay; assay type: toxicity; conditions: cd34-positive hematopoietic stem/progenitor cell, 120 h, 0.003 µM, time 5 day
[17] = Hematotoxicity in CD34+ hematopoietic stem/progenitor cells (unknown origin) assessed as remaining viable cells treated at 100 nM for 5 days by cell-tire-Glo-2.0 luminescence based assay relative to control; assay type: toxicity, CD34-positive hematopoietic stem/progenitor cell; conditions: time 5 day, read-out: Activity
[18] = Unbound clearance in mouse; assay type: ADME, organism-based; conditions: in vivo
[19] = Unbound clearance in rat; assay type: ADME; conditions: in vivo
[20] = Unbound clearance in dog; assay type: ADME, Canis lupus familiaris; conditions: in vivo
[21] = Unbound clearance in monkey; assay type: ADME, Macaca mulatta; conditions: rhesus monkey, in vivo
[22] = Volume of distribution at steady state in mouse; assay type: ADME, organism-based; conditions: in vivo, read-out: Vdss
[23] = Volume of distribution at steady state in rat; assay type: ADME; conditions: in vivo, read-out: Vdss
[24] = Volume of distribution at steady state in dog; assay type: ADME, Canis lupus familiaris; conditions: in vivo, read-out: Vdss
[25] = Volume of distribution at steady state in monkey; assay type: ADME, Macaca mulatta; conditions: rhesus monkey, in vivo; read-out: Vdss
[26] = Half life in mouse; assay type: ADME, organism-based; conditions: in vivo
[27] = Half life in rat; assay type: ADME; conditions: in vivo
[28] = Half life in dog; assay type: ADME, Canis lupus familiaris; conditions: in vivo
[29] = Half life in monkey; assay type: ADME, Macaca mulatta; conditions: rhesus monkey, in vivo
[30] = Oral bioavailability in mouse; assay type: ADME, organism-based; conditions: in vivo
[31] = Oral bioavailability in rat; assay type: ADME, organism-based; conditions: in vivo
[32] = Oral bioavailability in dog; assay type: ADME, organism-based, Canis lupus familiaris; conditions: in vivo
[33] = Oral bioavailability in monkey; assay type: ADME, organism-based, Macaca mulatta; conditions: rhesus monkey, in vivo
[34] = target: T1, Protein mono-ADP-ribosyltransferase PARP8 (Homo sapiens) (UniProt Q8N3A8)
T1 sequence (whole entry): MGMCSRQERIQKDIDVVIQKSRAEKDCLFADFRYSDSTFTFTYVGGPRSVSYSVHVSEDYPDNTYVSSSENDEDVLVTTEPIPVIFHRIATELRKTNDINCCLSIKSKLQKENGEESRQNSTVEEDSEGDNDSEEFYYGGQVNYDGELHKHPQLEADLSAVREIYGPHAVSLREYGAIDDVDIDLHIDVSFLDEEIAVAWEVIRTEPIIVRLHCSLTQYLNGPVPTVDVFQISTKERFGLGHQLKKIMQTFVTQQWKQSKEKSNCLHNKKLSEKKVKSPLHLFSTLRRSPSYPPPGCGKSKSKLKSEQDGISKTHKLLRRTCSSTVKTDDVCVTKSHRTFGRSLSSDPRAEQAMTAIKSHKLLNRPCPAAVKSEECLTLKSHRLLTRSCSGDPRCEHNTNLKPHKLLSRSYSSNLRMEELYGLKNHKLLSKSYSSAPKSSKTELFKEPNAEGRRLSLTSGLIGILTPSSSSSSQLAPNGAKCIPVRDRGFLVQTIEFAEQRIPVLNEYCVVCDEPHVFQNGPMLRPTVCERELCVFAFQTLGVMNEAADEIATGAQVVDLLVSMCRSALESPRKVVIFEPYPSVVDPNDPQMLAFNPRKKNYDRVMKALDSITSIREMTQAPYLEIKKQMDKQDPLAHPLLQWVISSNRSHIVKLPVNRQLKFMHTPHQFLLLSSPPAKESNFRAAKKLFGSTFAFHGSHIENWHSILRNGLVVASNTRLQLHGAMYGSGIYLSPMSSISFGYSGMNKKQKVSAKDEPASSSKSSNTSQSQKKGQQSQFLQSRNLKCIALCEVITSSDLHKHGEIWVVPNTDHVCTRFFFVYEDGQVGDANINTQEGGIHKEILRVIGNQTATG

[35] = target: Protein mono-ADP-ribosyltransferase PARP9 (Homo sapiens, UniProt Q8IXQ6)
[36] = target: Protein mono-ADP-ribosyltransferase PARP12 (Homo sapiens) (UniProt Q9H0J9)
[37] = target: Protein mono-ADP-ribosyltransferase PARP14 (Homo sapiens) (UniProt Q460N5)
physchem = conditions: buffer, pH 7.4
in vitro [38] = conditions: human, liver microsomes
in vitro [39] = conditions: rat, plasma
in vitro [40] = conditions: dog, plasma
in vitro [41] = conditions: rhesus monkey, plasma
[42] = target: Poly [ADP-ribose] polymerase tankyrase-1 (Homo sapiens) (UniProt O95271); assay: Binding affinity to PARP5a (unknown origin) assessed as apparent dissociation constant

Chain of Protein mono-ADP-ribosyltransferase PARP14 (Homo sapiens) (Q460N5 whole entry): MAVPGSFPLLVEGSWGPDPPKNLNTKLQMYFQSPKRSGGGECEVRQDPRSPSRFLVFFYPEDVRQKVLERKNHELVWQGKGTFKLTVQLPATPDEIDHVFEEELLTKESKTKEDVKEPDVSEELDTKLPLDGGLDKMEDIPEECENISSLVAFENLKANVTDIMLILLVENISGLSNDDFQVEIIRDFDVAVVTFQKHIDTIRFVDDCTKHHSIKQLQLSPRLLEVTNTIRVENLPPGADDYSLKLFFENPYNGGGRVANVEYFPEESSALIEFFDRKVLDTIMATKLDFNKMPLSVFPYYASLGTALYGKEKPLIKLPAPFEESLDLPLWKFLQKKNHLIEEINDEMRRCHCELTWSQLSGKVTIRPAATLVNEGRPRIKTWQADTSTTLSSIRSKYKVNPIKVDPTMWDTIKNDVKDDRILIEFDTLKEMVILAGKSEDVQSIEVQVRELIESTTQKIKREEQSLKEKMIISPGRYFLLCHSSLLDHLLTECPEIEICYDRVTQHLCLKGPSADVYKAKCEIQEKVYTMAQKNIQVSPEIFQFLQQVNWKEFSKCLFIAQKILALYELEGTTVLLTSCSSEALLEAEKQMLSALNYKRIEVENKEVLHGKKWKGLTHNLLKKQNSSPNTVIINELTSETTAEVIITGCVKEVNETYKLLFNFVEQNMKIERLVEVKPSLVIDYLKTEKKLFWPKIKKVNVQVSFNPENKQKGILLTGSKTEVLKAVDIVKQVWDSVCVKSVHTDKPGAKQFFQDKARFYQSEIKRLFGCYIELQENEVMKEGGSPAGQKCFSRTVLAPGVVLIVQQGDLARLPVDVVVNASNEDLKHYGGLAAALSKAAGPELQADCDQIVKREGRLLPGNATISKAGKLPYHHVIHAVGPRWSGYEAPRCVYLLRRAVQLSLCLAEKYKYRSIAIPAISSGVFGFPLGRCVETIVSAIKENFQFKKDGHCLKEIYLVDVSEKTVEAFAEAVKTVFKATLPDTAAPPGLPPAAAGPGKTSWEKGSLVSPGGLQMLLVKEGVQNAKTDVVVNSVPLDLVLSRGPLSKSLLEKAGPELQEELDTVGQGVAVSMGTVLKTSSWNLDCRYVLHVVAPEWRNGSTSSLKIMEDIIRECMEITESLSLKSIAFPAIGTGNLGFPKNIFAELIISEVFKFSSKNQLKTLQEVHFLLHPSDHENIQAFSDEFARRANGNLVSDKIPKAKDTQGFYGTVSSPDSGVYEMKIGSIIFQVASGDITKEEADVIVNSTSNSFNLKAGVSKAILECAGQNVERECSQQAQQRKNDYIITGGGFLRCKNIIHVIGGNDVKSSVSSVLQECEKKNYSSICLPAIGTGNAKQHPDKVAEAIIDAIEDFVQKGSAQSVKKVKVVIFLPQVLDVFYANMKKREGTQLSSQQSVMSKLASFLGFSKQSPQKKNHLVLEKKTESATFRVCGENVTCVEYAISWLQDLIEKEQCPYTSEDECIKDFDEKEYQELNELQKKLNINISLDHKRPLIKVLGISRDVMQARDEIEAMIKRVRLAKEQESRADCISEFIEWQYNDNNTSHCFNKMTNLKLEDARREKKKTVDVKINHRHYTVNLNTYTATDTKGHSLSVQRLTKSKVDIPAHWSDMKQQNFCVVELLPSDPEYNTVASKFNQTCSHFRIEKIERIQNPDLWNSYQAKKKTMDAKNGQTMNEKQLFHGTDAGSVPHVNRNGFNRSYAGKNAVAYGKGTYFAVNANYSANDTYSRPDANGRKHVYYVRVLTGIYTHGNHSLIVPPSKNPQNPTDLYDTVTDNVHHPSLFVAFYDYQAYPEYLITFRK
Chain of Protein mono-ADP-ribosyltransferase PARP3 (Homo sapiens) (Q9Y6F1 whole entry): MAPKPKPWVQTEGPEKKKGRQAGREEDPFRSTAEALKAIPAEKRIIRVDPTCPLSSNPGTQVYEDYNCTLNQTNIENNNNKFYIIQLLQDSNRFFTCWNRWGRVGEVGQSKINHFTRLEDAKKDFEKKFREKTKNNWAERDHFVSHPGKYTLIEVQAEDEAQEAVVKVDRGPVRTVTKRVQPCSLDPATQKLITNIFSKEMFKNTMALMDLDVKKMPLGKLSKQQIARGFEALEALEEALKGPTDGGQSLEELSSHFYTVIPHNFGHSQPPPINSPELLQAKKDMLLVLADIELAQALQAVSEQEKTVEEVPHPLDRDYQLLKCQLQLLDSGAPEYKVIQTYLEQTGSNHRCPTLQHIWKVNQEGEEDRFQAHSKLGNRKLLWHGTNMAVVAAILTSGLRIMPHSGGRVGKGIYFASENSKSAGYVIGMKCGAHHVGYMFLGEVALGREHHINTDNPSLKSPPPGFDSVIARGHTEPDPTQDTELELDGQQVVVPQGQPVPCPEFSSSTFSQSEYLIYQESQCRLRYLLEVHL
Chain of Protein mono-ADP-ribosyltransferase PARP10 (Q53GL7 whole entry): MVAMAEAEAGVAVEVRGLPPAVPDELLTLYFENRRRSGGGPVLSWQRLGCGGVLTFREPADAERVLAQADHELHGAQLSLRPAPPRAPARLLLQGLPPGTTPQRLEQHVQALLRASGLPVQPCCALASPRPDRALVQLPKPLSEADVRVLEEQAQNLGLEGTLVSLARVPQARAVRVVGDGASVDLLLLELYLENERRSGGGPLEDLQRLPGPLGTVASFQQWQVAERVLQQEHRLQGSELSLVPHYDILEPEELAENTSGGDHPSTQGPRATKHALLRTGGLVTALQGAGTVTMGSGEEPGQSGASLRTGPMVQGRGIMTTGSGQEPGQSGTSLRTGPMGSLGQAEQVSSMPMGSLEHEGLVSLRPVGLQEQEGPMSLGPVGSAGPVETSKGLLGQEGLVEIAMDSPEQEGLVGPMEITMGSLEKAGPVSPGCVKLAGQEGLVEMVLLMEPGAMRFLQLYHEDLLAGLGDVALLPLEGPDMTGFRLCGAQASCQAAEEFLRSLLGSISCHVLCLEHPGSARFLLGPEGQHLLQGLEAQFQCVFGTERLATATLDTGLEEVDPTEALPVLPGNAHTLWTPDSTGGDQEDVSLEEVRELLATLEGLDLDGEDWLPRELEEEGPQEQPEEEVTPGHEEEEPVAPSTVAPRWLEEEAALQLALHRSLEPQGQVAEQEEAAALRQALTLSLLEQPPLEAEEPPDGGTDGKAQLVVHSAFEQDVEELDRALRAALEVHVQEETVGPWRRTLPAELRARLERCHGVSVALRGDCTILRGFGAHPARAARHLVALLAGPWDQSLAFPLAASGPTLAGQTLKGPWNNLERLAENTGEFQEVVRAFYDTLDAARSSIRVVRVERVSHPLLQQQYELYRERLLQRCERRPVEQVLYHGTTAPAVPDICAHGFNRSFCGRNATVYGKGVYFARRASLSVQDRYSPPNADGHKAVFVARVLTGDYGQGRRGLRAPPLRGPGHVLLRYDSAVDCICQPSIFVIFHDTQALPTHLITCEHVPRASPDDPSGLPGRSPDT
Chain of Protein mono-ADP-ribosyltransferase PARP12 (Homo sapiens) (Q9H0J9 whole entry): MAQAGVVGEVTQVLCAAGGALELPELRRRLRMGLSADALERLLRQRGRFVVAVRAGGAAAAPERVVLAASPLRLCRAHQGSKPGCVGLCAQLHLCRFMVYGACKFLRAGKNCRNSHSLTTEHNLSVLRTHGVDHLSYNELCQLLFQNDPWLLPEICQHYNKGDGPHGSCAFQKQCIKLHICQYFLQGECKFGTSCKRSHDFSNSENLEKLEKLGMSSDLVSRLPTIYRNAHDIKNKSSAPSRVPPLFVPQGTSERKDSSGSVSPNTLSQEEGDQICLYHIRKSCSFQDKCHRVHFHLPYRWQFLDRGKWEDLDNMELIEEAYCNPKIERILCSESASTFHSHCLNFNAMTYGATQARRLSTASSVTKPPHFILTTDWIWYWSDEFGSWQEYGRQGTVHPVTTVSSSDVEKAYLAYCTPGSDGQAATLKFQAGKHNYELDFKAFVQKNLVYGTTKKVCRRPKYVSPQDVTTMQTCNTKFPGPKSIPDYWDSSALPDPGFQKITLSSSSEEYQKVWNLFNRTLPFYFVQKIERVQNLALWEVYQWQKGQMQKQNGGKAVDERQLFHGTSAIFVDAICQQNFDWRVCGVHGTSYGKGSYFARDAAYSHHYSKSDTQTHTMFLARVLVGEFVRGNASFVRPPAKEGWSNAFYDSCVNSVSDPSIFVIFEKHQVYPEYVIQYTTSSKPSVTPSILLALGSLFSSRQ
Chain of Protein mono-ADP-ribosyltransferase PARP16 (Homo sapiens) (Q8N5Y8 whole entry): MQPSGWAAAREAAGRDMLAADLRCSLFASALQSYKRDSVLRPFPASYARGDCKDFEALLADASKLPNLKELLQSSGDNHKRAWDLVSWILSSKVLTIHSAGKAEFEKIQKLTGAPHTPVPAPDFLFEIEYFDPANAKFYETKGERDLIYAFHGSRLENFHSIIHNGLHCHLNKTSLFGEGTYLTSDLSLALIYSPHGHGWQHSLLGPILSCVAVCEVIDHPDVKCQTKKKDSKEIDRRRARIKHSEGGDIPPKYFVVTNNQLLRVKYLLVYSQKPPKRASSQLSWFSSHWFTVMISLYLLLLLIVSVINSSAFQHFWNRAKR

CCc1cc2ncc(CN3CCN(c4ccc(C(=O)NC)nc4)CC3)cc2[nH]c1=O [SARUPARIB]
IC50 (DLD-1): 2 nM | solubility [1]: 50 µM (≈ 20.3 µg/mL) | hepatocyte CLint [2]: < 1 µL/min/1e6 cells | Kd(app) [3]: Active | Kd(app) [4]: Active | Kd [5]: > 10000 nM | Kd(app) [6]: Active | clearance [7]: 0.23 mL/min/kg | clearance [8]: 1.1 mL/min/kg | clearance [9]: 0.35 mL/min/kg | clearance [10]: 0.84 mL/min/kg | Activity [11]: 23% | Activity [12]: 73% | Activity [13]: 84% | Activity [14]: 86% | Activity [15]: Dde | Activity [16]: Toxic | viability at 120 h, 0.1 µM [17]: 46% | CL free [18]: 3.2 mL/min/kg | CL free [19]: 34 mL/min/kg | CL free [20]: 2.1 mL/min/kg | CL free [21]: 20 mL/min/kg | Vd [22]: 0.17 L/kg | Vd [23]: 0.38 L/kg | Vd [24]: 0.3 L/kg | Vd [25]: 0.38 L/kg | half-life [26]: 8 h | half-life [27]: 4.6 h | half-life [28]: 10 h | half-life [29]: 7.1 h | bioavailability [30]: 77% | bioavailability [31]: 132% | bioavailability [32]: 73% | bioavailability [33]: 122% | Kd(app) [34]: Active | Kd(app) [35]: Active | Kd(app) [36]: Active | Kd(app) [37]: Active | logD (physchem): 1.9 | microsomal CLint (in vitro [38]): < 3 µL/min/mg | fraction unbound (in vitro [39]): 0.032 | fraction unbound (in vitro [40]): 0.17 | fraction unbound (in vitro [41]): 0.043 | Kd(app) [42]: Active
